# Data published in US8309570B2, “Treatment of central neuropathic pain” (Analgesic Neuropharmaceuticals, LLC, priority 2001, dated 2012).
# “Also recorded” adds a separate entry of the source. Counter-ions that a name gives are not always drawn.
# What was measured:
# [1] = Crossover trial: adverse effects; assay type: in vivo, human; settings: for confusion, proportion of patients / dizziness, proportion of patients / euphoria, proportion of patients / fatigue, proportion of patients / somnolence, proportion of patients / speech difficulty, proportion of patients / urinary incontinence, proportion of patients / urinary tract infection, proportion of patients: human, in vivo, oral, 5 weeks
# Experimental: Presence and intensity (5-item categorical scale) of adverse effects were assessed continuously using an open question.
# [2] = tested on: central neuropathic pain following traumatic spinal cord injury; experiment: Crossover trial: evoked pain (touch-evoked allodynia, pinprick-evoked hyperalgesia); assay type: in vivo, human; settings: for intensity of touch-evoked allodynia, compared to placebo: 14 subjects with allodynia, dextromethorphan p=0.03, gabapentin p=0.01, combination p=0.001; for mean area of allodynia after treatment / mean area of allodynia, reduction from baseline: baseline 362±496 cm^2; for mean area of pinprick hyperalgesia after treatment / mean area of pinprick hyperalgesia, reduction from baseline: baseline 371±523 cm^2; for areas of pinprick hyperalgesia, difference: combination p=0.03, dextromethorphan p=0.02, gabapentin p=0.03
# Experimental: (§1) Secondary endpoints were assessed at a clinic visit on the final day of each treatment period, and included: 1) Global Pain Intensity (6-item categorical scale); 2) Global Pain Relief (6-item categorical scale); 3) pain intensity (Gracely Scale) of individual pain descriptors (burning pain; aching pain; tingling pain; cold pain; brief lancinating pain; deep stabbing pain; constricting pain; and touch-evoked pain (allodynia)); 4) areas of evoked pain: a) allodynia and b) pinprick-evoked hyperalgesia; 5) quality of life, assessed using the Duke Health Profile (Parkerson, G R, et al. Medical Care 28:1056-1069(1990)). 6) Patient Satisfaction (5-item categorical scale); 7) patients' assessment of best treatment. Allodynia was mapped by stroking the skin with the distal 5 mm of the corner of a 2×2 gauze sponge at standard pressure, at a rate of 1 cm/sec. Pinprick-evoked hyperalgesia was mapped using a standard safety pin that was pressed against the skin until dimpling was visible. Ambient temperature was maintained at 24 degrees centigrade. All mapping took place within a 30-minute period. The delineated areas of evoked pain were recorded using photographs of 4 views (anterior/posterior/right lateral/left lateral), which were scanned, and the areas of each of the 4 views were summed to determine the composite area.
# [3] = tested on: central neuropathic pain following traumatic spinal cord injury; experiment: Crossover trial: quality of life, Duke Health Profile; assay type: in vivo, human; settings: for Pain domain, compared to placebo: combination p=0.002, dextromethorphan p=0.001, gabapentin p=0.03
# Experimental: as §1
# [4] = tested on: central neuropathic pain following traumatic spinal cord injury; experiment: Randomized, double-blind, double-dummy, 2x2 factorial crossover trial: spontaneous pain, pain relief, patient satisfaction; assay type: in vivo, human; settings: for patients choosing treatment as best pain relief / patients choosing treatment as best, balance between analgesia and side effects: at completion of the study, p=0.04; for SCI (spontaneous) pain compared to placebo: chronic oral administration; for overall patient satisfaction at the end of each treatment period, compared to placebo: dextromethorphan p<0.001, gabapentin p<0.01, combination p<0.001; for patients with at least moderate or better pain relief: of 18 patients, end of 5-week treatment
# Experimental: Central neuropathic pain following traumatic spinal cord injury (SCI) may be severe and refractory to standard analgesics. Pharmacologic agents that target distinct pathophysiological pain mechanisms theoretically could provide pain relief for these patients. The analgesic efficacy of dextromethorphan and gabapentin in combination, dextromethorphan alone, gabapentin alone, and placebo, in patients with pain following SCI was evaluated in a randomized, double-blind, double-dummy, 2×2 factorial, Latin Square crossover trial, we evaluated the four treatments. Each treatment was titrated over 4 weeks and maintained at the individual's […] until the end of Week 5. Each treatment period was followed by a 1-week washout period or until pain returned to baseline. Primary efficacy measure was mean pain intensity during the 5-week treatment period, measured by the 20-point Gracely pain intensity scale.
# Patients with 1) central neuropathic pain secondary to traumatic SCI in persons >18 years of age, 2) moderate pain for at least 50% of the day for at least 3 months, 3) concurrent use of no more than two analgesics at a stable dose (e.g. tricyclic antidepressants, anticonvulsants, nonsteroidal antiinflammatory drugs, or limited use of low-potency short-acting opioids), and 4) 100% compliance in rating their overall pain intensity 5-times daily in a diary for 1 week, were recruited nationwide between July 1997 and April 1999 using written announcements and by physician referrals.
# (§2) All patients were followed as outpatients. Patients were randomly assigned to a sequence of the 4 treatments. Each of the 4 treatment periods consisted of 5 weeks. Each treatment period was separated by a 1-week washout period, with the requirement that pain return to baseline level. Dextromethorphan (Endo Inc., Neptune, N.J.; and its externally identical placebo) and gabapentin (Neurontin, Pfizer, Inc., Ann Arbor, Mich.; and its externally identical placebo) were dispensed using a double-dummy design; thus, the dextromethorphan:gabapentin dose-ratio was maintained at 1:5. Subjects started at 120 mg/day of dextromethorphan vs. placebo and 600 mg/day of gabapentin vs. placebo, and titrated according to a fixed schedule until they reached the ceiling doses equivalent to 600 mg/day of dextromethorphan or 3000 mg/day of gabapentin or their maximally tolerated dose (the dose just causing side effects, MTD). The titration regimen and the number of capsules per dose for each treatment were the same in each treatment group, in order to maintain double blinded conditions.
# The primary endpoint was mean spontaneous pain intensity averaged weekly, from the start of study drug until the end of Week 5 for each treatment period and overall for the 5 weeks, assessed in a diary in which pain ratings were recorded 5-times daily, and evaluated with the 20-point Gracely pain scale based on 13 words (“faint” to “extremely intense”) (Gracely R H, et al. Pain 5:5-18(1978)).
# as §1, with “Ambient temperature was maintained at 24 degrees centigrade. All mapping took place within a 30-minute period. The delineated areas of evoked pain were recorded using photographs of 4 views (anterior/posterior/right lateral/left lateral), which were scanned, and the areas of each of the 4 views were summed to determine the composite area.” left out
# [5] = Crossover trial: titration to maximally tolerated dose (MTD); assay type: in vivo, human; settings: drug alone; for mean dose during Week 5: after 4 weeks of titration to MTD; for maximum daily dose administered: titration to MTD
# Text: as §2
# neuropathic pain = settings: cited from earlier work
# SCI pain [6] = settings: chronic oral agents; cited from earlier work
# spinally injured rats = settings: repeated doses; cited from earlier work
# SCI pain [7] = settings: acute parenteral administration; cited from earlier work
SMILES,"confusion, proportion of patients [1]","dizziness, proportion of patients [1]","euphoria, proportion of patients [1]","fatigue, proportion of patients [1]","somnolence, proportion of patients [1]","speech difficulty, proportion of patients [1]","urinary incontinence, proportion of patients [1]","urinary tract infection, proportion of patients [1]","intensity of touch-evoked allodynia, compared to placebo [2]",mean area of allodynia after treatment [2],"mean area of allodynia, reduction from baseline [2]",mean area of pinprick hyperalgesia after treatment [2],"mean area of pinprick hyperalgesia, reduction from baseline [2]","areas of pinprick hyperalgesia, difference [2]","Pain domain, compared to placebo [3]",patients choosing treatment as best pain relief [4],"patients choosing treatment as best, balance between analgesia and side effects [4]","overall patient satisfaction at the end of each treatment period, compared to placebo [4]",patients with at least moderate or better pain relief [4],mean dose during Week 5 [5],further results
"COc1ccc2c(c1)[C@]13CCCC[C@@H]1[C@H](C2)N(C)CC3 [dextromethorphan, dextromethorphan hydrobromide]",33%,67%,24%,52%,62%,10%,5%,38%,significantly reduced,183±321 cm^2,49%,122±287 cm^2,67%,significant difference,significantly better than placebo,33.3%,17.5%,significantly better,50%,416 ± 34 mg/day,"proportion of patients with cognitive side effects, compared to either placebo or gabapentin ([1]; p<0.002): significantly larger proportion; proportion of patients with other side effects, compared to placebo ([1]; p=0.01): significantly larger proportion; Physical Health measure, compared to placebo ([3]; combination p=0.001, dextromethorphan p=0.02): significantly better than placebo; General Health measure, compared to placebo ([3]; combination p=0.01, dextromethorphan p=0.04): significantly better than placebo; SCI (spontaneous) pain compared to placebo ([4]; hydrobromide): significant reduction; also recorded: superior to placebo; intensity of burning pain, compared to placebo ([4]; combination p=0.005, dextromethorphan p=0.001): significant relief; brief paroxysms of lancinating pain, compared to placebo ([4]; combination p=0.03, dextromethorphan p=0.003): significant relief; mean daily dose [5]: 416 mg; maximum daily dose administered [5]: 470 ± 29 mg/day; analgesic effect in patients with neuropathic pain (neuropathic pain; dextromethorphan alone at 81 mg/day): inability; effect in patients with peripheral neuropathic pain (neuropathic pain; human, in vivo): marginal effect"
O=c1n(CCCN2CCN(c3cccc(Cl)c3)CC2)nc2ccccn12 [trazodone],,,,,,,,,,,,,,,,,,,,,results of randomized controlled trials in SCI pain (SCI pain [6]): negative
Cc1cccc(C)c1OCC(C)N (centres unmarked) [mexiletine],,,,,,,,,,,,,,,,,,,,,results of randomized controlled trials in SCI pain (SCI pain [6]): negative
NCC1(CC(=O)O)CCCCC1 [gabapentin],22%,22%,6%,33%,33%,0%,11%,22%,significantly reduced,106±231 cm^2,71%,152±332 cm^2,59%,significant difference,significantly better than placebo,27.8%,23.5%,significantly better,39%,2657 ± 155 mg/day,"area of allodynia, compared to placebo ([2]; combination p=0.05, gabapentin p=0.02): significant difference from placebo; SCI (spontaneous) pain compared to placebo [4]: significant reduction; also recorded: superior to placebo; chronic hypersensitivity (spinally injured rats): alleviated chronic hypersensitivity; mean daily dose [5]: 2657 mg; maximum daily dose administered [5]: 2717 ± 148 mg/day"
CNC1(c2ccccc2Cl)CCCCC1=O (centres unmarked) [ketamine],,,,,,,,,,,,,,,,,,,,,spontaneous and evoked SCI pain (SCI pain [7]): reduced both spontaneous and evoked SCI pain
